Measured values: patent US20250188033A1, “INHIBITOR OF REPLICATION PROTEIN A1 OF TRYPANOSOMA BRUCEI AND METHOD OF USE THEREOF” (Research Foundation of the City University of New York, published 2025)

Tested on: Trypanosoma brucei
Assay: ALAMARBLUE cell viability / growth assay of T. brucei cells
Type: cell-based
Protocol: To determine cell growth rate, WT and two TbRPA1 RNAi KD strains (KD1 and KD2) were seeded at a density of 1×10^5 cells/ml and cultured with or without tetracycline for the induction of RNAi. Cells were counted every 12 hours for 2 days. To determine the viability of TbRPA1-depleted cells, ALAMARBLUE® assay (Thermo Fisher, an established colorimetric technique that detects metabolically active cells) was used. Cells from each time point were incubated with ALAMARBLUE® dye for 4-6 hours and percentage of live cells was determined by measuring resorufin converted from resazurin by reducing environment of live cells. Synergy H1 microplate reader (BioTek) was used with 560/590 nm (excitation/emission) filter settings and Relative Fluorescence Unit (RFU) values were obtained. The percentage of viable cells were calculated from the RFU values.
The initial assessment of JC-229's inhibitory effect on T. brucei cell growth was performed at 50 μM concentration. Trypanosome cells were seeded at 1×10^3 cells/ml density in 180 μl in a 96-well culture plate in triplicate. These cells were incubated with 50 μM JC-229 for 24, 48, and 72 hours. DMSO was used as a vehicle control at 0.0075%. JC-229-treated culture and control cultures were analyzed with the ALAMARBLUE® dye as described above.
To obtain the EC50 value of JC-229, T. brucei cells were seeded at 1×10^3 cells/ml density in 180 μl in a 96-well culture plate in triplicate. These cells were incubated for 72 hours with increasing concentrations of JC-229, (0.5 μM to 50 μM) and cell viability was determined using the ALAMARBLUE® dye as described above.
Trypanosoma brucei cytotoxicity of JC-229 and analogs were measured using ALAMARBLUE® assay (Rampersad, S. N. Multiple applications of ALAMARBLUE® as an indicator of metabolic function and cellular health in cell viability bioassays. Sensors (Basel) 12, 12347-12360 (2012). Trypanosome cells were seeded at 1×10^3 cells/ml density in 180 μl in a 96-well culture plate in triplicate. These cells were incubated with indicated concentration of JC compounds for 72 hours. DMSO was used as a vehicle control at 0.0075%. JC compound-treated cultures were then incubated with ALAMARBLUE® dye for 4-6 hours and percentage of live cells was determined using Synergy H1 microplate reader (BioTek) with 560/590 nm (excitation/emission) filter settings and Relative Fluorescence Unit (RFU) values were obtained. The percentage of viable cells were calculated from the RFU values by normalizing to DMSO treated control. In one embodiment, the inhibitor is characterized in that it provides at least 50%, at least 80% or at least 90% inhibition at a concentration of 5 μM when tested in accordance with the above conditions.

[1] = T. brucei, 2 μM, 72 hours, normalized to DMSO control
[2] = T. brucei, 5 μM, 72 hours, normalized to DMSO control
[3] = T. brucei, 72 hours, normalized to DMSO control

Structure (SMILES) | % Inhibition @2 μM [1] [%] | % Inhibition @5 μM [2] [%] | % Inhibition @10 μM [3] [%] | also measured
Cc1ccc(C(=O)Nc2ccc(Cl)c(Cl)c2)cc1S(=O)(=O)N1CCC(NS(=O)(=O)c2ccc(CBr)cc2)CC1 [JC-1009] | 99 | 100 | – | –
Cc1ccc(C(=O)Nc2ccc(Cl)c(Cl)c2)cc1S(=O)(=O)NCCNC(=S)Nc1ccccc1F [JC-1001] | 49 | 66 | – | –
Cc1cc(NS(=O)(=O)c2cc(C(=O)Nc3ccc(Cl)c(Cl)c3)ccc2C)n[nH]1 [JC-894] | −4 | – | 2 | –
Cc1ccc(C(=O)Nc2ccc(Cl)c(Cl)c2)cc1S(=O)(=O)NCCNC(=O)OC(C)(C)C [JC-917] | −14 | – | 73 | –
CCOc1ccc2cc(C3CC(c4ccc(Br)cc4)=NN3C(=O)CCC(=O)O)c(Cl)nc2c1 (stereo not drawn) [TDRL-505, reference compound] | – | – | – | effect on T. brucei proliferation (even at 60 μM): no effect
Cc1ccc(C(=O)NNc2ccccc2)cc1S(=O)(=O)Nc1ccc(Cl)c(Cl)c1 [JC-860] | 5 | – | 24 | –
Cc1ccc(C(=O)Nc2ccc(Cl)c(Cl)c2)cc1S(=O)(=O)Nc1ccc(O)cc1 [JC-912] | −5 | – | 58 | –
Cc1ccc(C(=O)Nc2ccc(Cl)c(Cl)c2)cc1S(=O)(=O)N1CCC(NS(=O)(=O)c2ccc(Br)cc2C(F)(F)F)CC1 [JC-1011] | 63 | 101 | – | –
Cc1ccc(C(=O)N2CCOCC2)cc1S(=O)(=O)Nc1ccc(Cl)c(Cl)c1 [JC-867] | −14 | – | 31 | –
Cc1ccc(C(=O)Nc2ccc(Cl)c(Cl)c2)cc1S(=O)(=O)C1CCN(C(=O)OC(C)(C)C)CC1 [JC-910] | 18 | – | 73 | –
Cc1ccc(C(=O)Nc2ccc(Cl)c(Cl)c2)cc1S(=O)(=O)C1CCC(N)CC1 (stereo not drawn) [JC-925] | −8 | – | 17 | –
Cc1ccc(C(=O)Nc2ccc(Cl)c(Cl)c2)cc1S(=O)(=O)NCCCNC(=O)OC(C)(C)C [JC-932] | 7 | – | 73 | –
O=C(Nc1ccc(Cl)c(Cl)c1)c1ccc(Cl)c(S(=O)(=O)Nc2ccc(Cl)c(Cl)c2)c1 [JC-853] | −17 | – | 81 | –
Cc1ccc(C(=O)Nc2cc(C(F)(F)F)n[nH]2)cc1S(=O)(=O)Nc1ccc(Cl)c(Cl)c1 [JC-866] | −15 | – | 23 | –
Cc1ccc(C(=O)Nc2ccc(Cl)c(Cl)c2)cc1S(=O)(=O)NCCCCCCO [JC-898] | 6 | – | 57 | –
Cc1ccc(C(=O)Nc2ccc(Cl)c(Cl)c2)cc1S(=O)(=O)N1CCC(NS(=O)(=O)c2cccc(Br)c2)CC1 [JC-1010] | 9 | −15 | – | –
Cc1ccc(C(=O)Nc2ccc(Cl)c(Cl)c2)cc1S(=O)(=O)N1CCCC(NC(=S)Nc2ccccc2F)C1 (stereo not drawn) [JC-1006] | 17 | 101 | – | –
Cc1ccc(C(=O)Nc2ccc(Cl)c(Cl)c2)cc1S(=O)(=O)N1CCCC(NC(=S)Nc2ccc(Cl)c(Cl)c2)C1 (stereo not drawn) [JC-1007] | 100 | 101 | – | –
Cc1ccc(C(=O)Nc2ccc(Cl)c(Cl)c2)cc1S(=O)(=O)C1CCCC(N)C1 (stereo not drawn) [JC-955] | 25 | 100 | – | –
Cc1ccc(C(=O)Nc2ccc(Cl)c(Cl)c2)cc1S(=O)(=O)N1CCC(NC(=O)OC(C)(C)C)CC1 [JC-896] | 17 | 69.4 | 92 | –
Cc1ccc(C(=O)N[C@@H](Cc2ccccc2)C(N)=O)cc1S(=O)(=O)Nc1ccc(Cl)c(Cl)c1 [JC-862] | −19 | – | 27 | –
Cc1ccc(C(=O)Nc2ccc(Cl)c(Cl)c2)cc1S(=O)(=O)N1CCCC(NC(=O)Cc2ccccc2)C1 (stereo not drawn) [JC-930] | 4 | 99.7 | 100 | –
Cc1ccc(C(=O)Nc2ccc(Cl)c(Cl)c2)cc1S(=O)(=O)NCCCNC(=S)Nc1ccc(F)cc1 [JC-1015] | 11 | 100 | – | –

Structure (SMILES) | % Inhibition @2 μM [1] [%] | % Inhibition @5 μM [2] [%] | % Inhibition @10 μM [3] [%] | also measured
Cc1ccc(C(=O)Nc2ccc(Cl)c(Cl)c2)cc1S(=O)(=O)NCCCNC(=O)c1ccccc1 [JC-935] | 3 | – | 19 | –
Cc1ccc(C(=O)Nc2ccc(Cl)c(Cl)c2)cc1S(=O)(=O)NCCNS(=O)(=O)c1ccc(OCc2ccccc2)cc1 [JC-997] | −9 | 92 | – | –
Cc1ccc(C(=O)Nc2ccc(Cl)c(Cl)c2)cc1S(=O)(=O)N1CCCC(NC(=S)Nc2ccc(C(F)(F)F)cc2)C1 (stereo not drawn) [JC-1008] | 100 | 100 | – | –
Cc1ccc(C(=O)Nc2ccc(Cl)c(Cl)c2)cc1S(=O)(=O)C1CCC(NC(=O)OC(C)(C)C)CC1 (stereo not drawn) [JC-924] | −2 | 99.4 | 100 | –
Cc1ccc(C(=O)Nc2ccc(Cl)c(Cl)c2)cc1S(=O)(=O)N1CCC(NC(=O)c2ccccc2)CC1 [JC-966] | 13 | 0 | – | –
Cc1ccc(C(=O)NCc2ccccc2)cc1S(=O)(=O)Nc1ccc(Cl)c(Cl)c1 [JC-856] | −7 | – | 22 | –
Cc1ccc(C(=O)Nc2ccc(Cl)c(Cl)c2)cc1S(=O)(=O)N1CCC(NS(C)(=O)=O)CC1 [JC-969] | 18 | −4 | – | –
Cc1ccc(C(=O)Nc2ccc(Cl)c(Cl)c2)cc1S(=O)(=O)NCCNS(=O)(=O)c1cccc(Br)c1 [JC-994] | −17 | 61 | – | –
Cc1ccc(C(=O)Nc2ccc(Cl)c(Cl)c2)cc1S(=O)(=O)N1CCC[C@@H](N)C1 [JC-963] | – | – | – | inhibition at 2 µM (Trypanosoma brucei, T. brucei, 2 μM, 72 hours, normalized to DMSO control): 96%; inhibition at 5 µM (Trypanosoma brucei, T. brucei, 5 μM, 72 hours, normalized to DMSO control): 100%
Cc1ccc(C(=O)Nc2ccc(Cl)c(Cl)c2)cc1S(=O)(=O)N1CCCC(NC(=S)Nc2cccc(C(F)(F)F)c2)C1 (stereo not drawn) [JC-1005] | 100 | 100 | – | –
Cc1ccc(C(=O)Nc2ccc(Cl)c(Cl)c2)cc1S(=O)(=O)NCCNS(=O)(=O)c1ccc(Br)cc1C(F)(F)F [JC-995] | −34 | 93 | – | –
Cc1ccc(C(=O)Nc2ccc(Cl)c(Cl)c2)cc1S(=O)(=O)NCCNS(=O)(=O)c1ccc(Br)cc1 [JC-923] | 2 | 100.9 | 100 | –
Cc1ccc(C(=O)Nc2ccc(Cl)c(Cl)c2)cc1S(=O)(=O)N1CCCC(NC(=O)OC(C)(C)C)C1 (stereo not drawn) [JC-962] | 36 | 100 | – | –
Cc1ccc(C(=O)Nc2ccc(Cl)c(Cl)c2)cc1S(=O)(=O)NC(Cc1ccccc1)C(N)=O (stereo not drawn) [JC-870] | −34 | – | 49 | –
Cc1ccc(C(=O)Nc2ccc(Cl)c(Cl)c2)cc1S(=O)(=O)NCc1cccc2ccccc12 [JC-887] | −9 | – | 14 | –
Cc1ccc(C(=O)Nc2ccc(Cl)c(Cl)c2)cc1S(=O)(=O)NC(Cc1ccccc1)C(N)=O (stereo not drawn) [JC-869] | −34 | – | 30 | –
Cc1ccc(C(=O)Nc2ccc(Cl)c(Cl)c2)cc1S(=O)(=O)NCCNC(=S)Nc1ccc(C(F)(F)F)cc1 [JC-1003] | 0 | 80 | – | –
Cc1ccc(C(=O)Nc2ccc(Cl)c(Cl)c2)cc1S(=O)(=O)N1CCC(NC(=S)Nc2ccc(C(F)(F)F)cc2)CC1 [JC-1020] | 100 | 100 | – | –
Cc1ccc(C(=O)Nc2ccc(Cl)c(Cl)c2)cc1S(=O)(=O)C1CCNCC1.O=C(O)C(F)(F)F [JC-911] | 11 | – | 25 | –
Cc1ccc(C(=O)Nc2nc3ccccc3[nH]2)cc1S(=O)(=O)Nc1ccc(Cl)c(Cl)c1 [JC-865] | −1 | – | 55 | –
Cc1ccc(C(=O)Nc2ccc(Cl)c(Cl)c2)cc1S(=O)(=O)NCCNC(=O)[C@H](N)Cc1ccccc1 [JC-922] | −7 | – | 19 | –
Cc1ccc(C(=O)Nc2ccc(Cl)c(Cl)c2)cc1S(=O)(=O)NCc1ccccc1 [JC-857] | −5 | – | 14 | –
